Reference: patent publication EP0611660A2, “Condensed 5-membered heterocycles, process for their preparation and medicines containing these compounds” (Dr. Karl Thomae GmbH, priority 1993, dated 1994)
Structures can show the parent of a compound that is named as a salt.

System: Thrombozytenaggregation
Assay: Antithrombotic effect: collagen-induced platelet aggregation (Born and Cross) in platelet-rich plasma
Type: cell-based
Conditions: human platelet-rich plasma, 10 min preincubation at 37 °C, 50% change of optical density, read-out: Hemmung der Plättchenaggregation EC50
Excerpt: 2. Antithrombotische Wirkung: Methodik Die Thrombozytenaggregation wird nach der Methode von Born und Cross (J. Physiol. 170, 397 (1964)) in plättchenreichem Plasma gesunder Versuchspersonen gemessen. Zur Gerinnungshemmung wird das Blut mit Natriumcitrat 3,14 % im Volumenverhältnis 1:10 versetzt. Collagen-induzierte Aggregation Der […] Substanz photometrisch gemessen und registriert. Aus dem Neigungswinkel der Dichtekurve wird auf die Aggregationsgeschwindigkeit geschlossen. Der Punkt der Kurve, bei dem die größte Lichtdurchlässigkeit vorliegt, dient zur Berechnung der "optical density". Die Collagen-Menge wird möglichst gering gewählt, aber doch so, daß sich eine irreversibel verlaufende Reaktionskurve ergibt. Verwendet wird das handelsübliche Collagen der Firma Hormonchemie, München. Vor der Collagen-Zugabe wird das Plasma jeweils 10 Minuten mit der Substanz bei 37 ° C inkubiert. Aus den erhaltenen Meßzahlen wird graphisch eine EC50 bestimmt, die sich auf eine 50%ige Änderung der "optical density" […].

| Compound | IC50 [nM] |
| --- | --- |
| Cn1c(=O)n(CCCCC(=O)O)c(=O)c2[nH]c(CCC3CCNCC3)nc21 [1(48), 1-(4-Carboxy-butyl)-3-methyl-8-[2-(4-piperidinyl)ethyl]-xanthin-dihydrochlorid] | 250 |
| O=C(O)CCCCn1c(=O)c2nc(CCC3CCNCC3)n3c2n(c1=O)CCC3 [1(63), 9-(4-Carboxy-butyl)-2-[2-(4-piperidinyl)-ethyl]-8,10-dioxo-5,6-dihydro-4H,9H-pyrimido[1,2,3-cd]purin-dihydrobromid] | 4400 |
| Cn1c(C(=O)NC2CCNCC2)nc2cc(C(=O)NCCC(=O)O)ccc21 [1(1), 5-[(2-Carboxy-ethyl)-aminocarbonyl]-1-methyl-2-[(4-piperidinyl)-aminocarbonyl]-benzimidazol-dihydro-bromid] | > 10000 |
| N=C(N)c1ccc(-c2nc3c(=O)n(CCCCC(=O)O)c(=O)n4c3n2CCC4)cc1 [1(61), 2-(4-Amidino-phenyl)-9-(4-carboxy-butyl)-8,10-dioxo-5,6-dihydro-4H,9H-pyrimido[1,2,3-cd]purin-dih-ydrobromid] | 110 |
| Cn1c(CCC2CCNCC2)nc2c(=O)n(CCCCC(=O)O)c(=O)n(C)c21 [1(49), 1-(4-Carboxy-butyl)-3,9-dimethyl-8-[2-(4-piperidinyl)-ethyl]-xanthin-dihydrobromid] | 150 |

The next lines start with the values.

| IC50 [nM] | Compound |
| --- | --- |
| 6400 | Cn1c(CCC2CCNCC2)nc2c1c(=O)n(CCCCC(=O)O)c(=O)n2C [6(12), 1-(4-Carboxy-butyl)-3,7-dimethyl-8-[2-(4-piperidinyl)-ethyl]-xanthin] |
| 430 | Cn1c(CCC2CCNCC2)nc2cc(C(=O)NCCC(=O)O)ccc21 [Beispiel 1, 5-[(2-Carboxy-ethyl)-aminocarbonyl]-1-methyl-2-[2-(4-piperidinyl)-ethyl]-benzimidazol-dihydrobromid] |
| 660 | COC(=O)CCCCn1c(=O)c2nc(-c3ccc(C(=N)N)cc3)n3c2n(c1=O)CCC3 [7(12), 2-(4-Amidino-phenyl)-9-(4-methoxycarbonyl-butyl)-8,10-dioxo-5,6-dihydro-4H,9H-pyrimido[1,2,3-cd]-purin] |
| 2300 | Cn1c(-c2ccc(C3CCNCC3)cc2)nc2cc(C=CC(=O)O)ccc21 [1(67), 5-(2-Carboxy-ethenyl)-1-methyl-2-[4-(4-piperidinyl)-phenyl]-benzimidazol-dihydrobromid] |
| 1250 | Cn1c(CCC2CCNCC2)nc2cc(C(=O)CCCC(=O)O)ccc21 [1(15), 5-(4-Carboxy-1-oxo-butyl)-1-methyl-2-[2-(4-piperidinyl)-ethyl]-benzimidazol-dihydrobromid] |
| 2000 | COC(=O)CCNC(=O)c1ccc2c(c1)nc(CCC1CCNCC1)n2C [Beispiel 2, 5-[(2-Methoxycarbonyl-ethyl)-aminocarbonyl]-1-methyl-2-[2-(4-piperidinyl)-ethyl]-benzimidazol] |
| 30000 | Cn1c(=O)n(CCCCC(=O)O)c(=O)c2[nH]c([C@H]3CC[C@H](CN)CC3)nc21 [1(64), 8-(trans-4-Aminomethyl-cyclohexyl)-1-(4-carboxy-butyl)-3-methyl-xanthin-dihydrochlorid] |
